Measured values taken from patent US20210292417A1, “HISTAMINE DIHYDROCHLORIDE COMBINATIONS AND USES THEREOF” (Immune Pharmaceuticals LTD., priority 2016, published 2021).

Tests used:
[1] = target: H2R (Homo sapiens, UniProt P25021); details: thioether group replaced by an ether; cited from earlier work
[2] = test system: CD14+ CMML cells; experiment: NK cell degranulation against primary CMML cells; assay type: cell-based, human; details: IL-2-stimulated NK cells; lintuzumab 1 μg/ml; HDC 100 μM added to lintuzumab
Protocol: Assays of NK cell degranulation and ADCC. NK cell degranulation and cytotoxicity against patient-derived, malignant monocytes were assessed in experiments using lintuzumab (Abbvie, Stockholm, Sweden), a humanized anti-CD33 antibody. NK cells from healthy donors were co-incubated with monocytes, labeled with CellTrace violet stain (Life Technologies), in the presence of anti-CD107a-PE-Cy7 antibody (BD Pharmingen) and anti-oxidative compounds for four hours at 37° C. and 5% CO2. Thereafter, the cells were stained with LIVE/DEAD® fixable dead cell stain (Life Technologies) and assessed for lysis of monocytes and NK cell degranulation by flow cytometry. For culture experiments, cytotoxicity assays and confocal microscopy, Iscoves' modified Dulbecco minimum essential medium (IDMEM) supplemented with 10% human AB+ serum was used.

[3] = test system: NK cells and CD8+ T cells co-cultured with CD14+ CMML cells; experiment: CMML cell-induced lymphocyte cell death, overnight co-culture; assay type: cell-based, human; details: DPI 3 μM; for CMML-induced lymphocyte apoptosis / cell death: NK cells and CD8+ T cells, HDC 100 μM, catalase 200U/ml, PJ34 0.5 μM
Protocol: (§1) Lymphocyte cell death. Isolated lymphocyte subsets were co-cultured overnight with primary leukemic monocytes from CMML patients with or without NOX2 inhibitors or other anti-oxidative compounds at 37° C. in 5% CO2. Lymphocyte cell death was assessed by flow cytometry after staining with a LIVE/DEAD® fixable dead cell stain (Life Technologies). In receptor expression assays, purified NK cells where co-cultured overnight with monocytes in the presence or absence of the PARP-1 inhibitor PJ34 ([…]). The following antibodies were used for receptor expression assessment: NKp46-PE (clone: 9E2) and DNAM-1-PE-Cy7 (clone: DX11) from Miltenyi Biotec. NKp80-APC (clone: 4A4.D10) and CD16-BV605 (clone: 3G8) from BD Pharmingen.
Subsets of CD8+ T cells were stained and sorted on a 3-laser […] II flow cytometer (BD Biosciences). The following antibodies were used to distinguish the T cell populations: CD3-Pacific Blue (clone: S4.1) from Life technologies. CD8-APC-H7 (clone: SK1), CD45RA-APC (clone: HI100), CD45RO-PE (clone: UCHL1) and CCR7-PE-Cy7 (clone: G043H7) all from BD Pharmingen. CD8+ T cell subsets were further defined as follows: naive T cells (TN) as CD45RA CCR7+, T central memory cells (TCM) as CD45ROCCR7+, T effector memory cells (TEM) as CD45ROCCR7^− and T effector cells (TEff) as CD45RACCR7^−.

[4] = test system: CD14+ CMML cells; experiment: Extracellular ROS production by isoluminol-enhanced chemiluminescence; assay type: cell-based, human; details: FACS-sorted CD14+ CMML cells stimulated with fMLF; HDC 50 or 100 μM
Protocol: ROS production. The extracellular ROS production of primary CMML cells was measured by isoluminol-enhanced chemiluminescence as described. In brief, 2×10^5 cells were added to 96-well plates in the presence of isoluminol (10 μg/ml) and horseradish peroxidase (HRP; 4U/ml) and stimulated by the NOX2 inducer N-formyl-methionyl-leucyl-phenylalanine (fMLF; 0.1 μM). Light emission was recorded using a FLUOstar Omega platereader (BMG Labtech).

[5] = test system: EL-4 thymoma cell line; experiment: EL-4 thymoma tumor growth in mice; assay type: in vivo, mouse; details: EL-4-bearing C57BL/6J mice; 1.5 mg histamine dihydrochloride i.p. three times per week; 240 μg each antibody i.p. days 3, 6 and 10
Protocol: The EL-4 thymoma cell line (provided by Dr. Ingo Schmitz, Otto-von-Guericke-University, Magdeburg, Germany) was cultured in DMEM medium (Sigma, Stockholm, Sweden) supplemented with 10% fetal calf serum, 100 U/ml penicillin, 100 μg/ml streptomycin and 2 mM L-glutamine, as described in […]. et al. The Journal of Immunology, volume 194, no. 10, pp. 5014-5021. C57BL/6J mice (6-8 weeks old, purchased from Charles River Laboratories, Sulzfeld, Germany) were inoculated subcutaneously with 1.75-2×10^5 EL-4 tumor cells and treated with saline (control) or 1.5 mg histamine dihydrochloride (purchased from Sigma-Aldrich, Stockholm, Sweden) diluted in saline, by intraperitoneal injections three times per week starting one day before inoculation of cells. Two-hundred forty μg of an antibody against the programmed cell death-1 receptor (anti-mouse PD1, clone RMP1-14, referred to as a-PD1) and 240 μg of an antibody against the programmed death-ligand 1 (anti-mouse PD-L1, clone 10F.9G2, referred to as α-PDL1) (both purchased from BioXcell, West Lebanon, N.H., USA, catalogue numbers BE0146 and BE0101, respectively) were administrated by intraperitoneal injections three, six and ten days after tumor inoculation. Tumors were measured manually every 2-3 days. Tumor size was calculated as length× width.

[6] = test system: NK cells; experiment: NK cell receptor expression after exposure to PJ34; assay type: cell-based, human; details: PJ34 in the absence of ROS-producing cells
Protocol: as §1

Chain of H2R (P25021 whole entry, species assumed): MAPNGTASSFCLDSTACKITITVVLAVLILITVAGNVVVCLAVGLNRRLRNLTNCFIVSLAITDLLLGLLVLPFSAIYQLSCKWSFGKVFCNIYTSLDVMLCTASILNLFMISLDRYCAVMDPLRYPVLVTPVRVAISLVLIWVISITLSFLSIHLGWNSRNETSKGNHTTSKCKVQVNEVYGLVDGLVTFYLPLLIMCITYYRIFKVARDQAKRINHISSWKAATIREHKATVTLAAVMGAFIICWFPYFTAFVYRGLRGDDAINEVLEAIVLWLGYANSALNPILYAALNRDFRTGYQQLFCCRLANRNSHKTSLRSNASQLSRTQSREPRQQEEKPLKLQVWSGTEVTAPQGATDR

Row | Molecule | NK cell degranulation response [2] | CMML-induced lymphocyte apoptosis / cell death [3] | also measured
1 | CNC(=C[N+](=O)[O-])NCCOCc1ccc(CN(C)C)o1 [AH202399AA] | – | – | reduction of affinity at H2R relative to ranitidine [1]: > 50 fold
2 | lintuzumab: a humanized anti-CD33 antibody | significantly augmented | – | –
3 | catalase | – | prevented | –
4 | Cl.Cl.NCCc1c[nH]cn1 [HDC, histamine dihydrochloride] | further enhanced | prevented | ROS production [4]: significantly suppressed; tumor growth [5]: significantly reduced tumor growth rate
5 | c1ccc2c(c1)[I+]c1ccccc1-2 [DPI, diphenylene iodonium chloride] | – | prevented | CMML cell-induced apoptosis of sorted CD8+ T cell subsets (TN, TCM, TEM, Teff) ([3]; ratio 1:1, overnight): efficiently rescued all T cell subsets
6 | CN(C)CC(=O)Nc1ccc2[nH]c(=O)c3ccccc3c2c1 [PJ34] | – | rescued | NK cell receptor expression [6]: No down-regulation
